Measured values: patent US8557853B2, “Aryl fluoroethyl ureas acting as alpha 2 adrenergic agents” (Allergan, Inc., priority 2007, dated 2013)
Read-outs that look alike come from different tables or passages of the source.

Tests used:
Assay type in all cases: cell-based
alpha2A receptor = target: T1, alpha2A receptor (Homo sapiens, UniProt P08913); assay: RSAT (Receptor Selection and Amplification Technology) assay, alpha 2A; settings: for EC50 / Alpha 2A EC50: RSAT, transfected NIH-3T3 cells, "not active" = not active at concentrations less than 10 micromolar; for Alpha 2A IA: intrinsic activity: ratio of maximal effect of drug to maximal effect of standard full agonist brimonidine (UK14304)
T1 construct: expressed in transfected cells; host or cells: NIH-3T3 cells
T1 sequence (P08913 1-465): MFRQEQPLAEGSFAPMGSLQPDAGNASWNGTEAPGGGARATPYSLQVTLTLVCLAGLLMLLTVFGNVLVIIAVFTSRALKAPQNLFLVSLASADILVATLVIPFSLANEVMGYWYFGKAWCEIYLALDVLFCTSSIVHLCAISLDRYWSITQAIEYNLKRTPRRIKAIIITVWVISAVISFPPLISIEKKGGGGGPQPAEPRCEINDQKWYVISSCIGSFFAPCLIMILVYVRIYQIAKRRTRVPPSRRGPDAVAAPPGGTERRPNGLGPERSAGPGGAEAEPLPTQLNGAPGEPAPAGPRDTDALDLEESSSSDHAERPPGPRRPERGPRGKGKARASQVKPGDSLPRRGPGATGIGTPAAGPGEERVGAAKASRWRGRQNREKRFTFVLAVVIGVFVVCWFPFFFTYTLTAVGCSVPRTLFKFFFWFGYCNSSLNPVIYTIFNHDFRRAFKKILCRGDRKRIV
Excerpt: (§1) The aryl fluoroethyl ureas of the invention are agonists of alpha2 adrenergic receptors. […] Al, 1995, Pharmacol. Toxicol. 76, pp. 308-311 (incorporated herein by reference) and is also described below. Another reference pertinent to this assay is Conklin et al. (1993) Nature 363:274-6, Receptor Selection and Amplification Technology (RSAT) assay, also incorporated herein by reference.
(§2) The RSAT assay measures a receptor-mediated loss of contact inhibition that results in selective proliferation of receptor-containing cells in a mixed population of confluent cells. The increase in cell number is assessed with an appropriate transfected marker gene such as ∃-galactosidase, the activity of which can be easily measured in a 96-well format. Receptors that activate the G protein, Gq, elicit this response. Alpha 2 receptors, which normally couple to Gi, activate the RSAT response when coexpressed with a hybrid Gq protein that has a Gi receptor recognition domain, called Gq/i5.
(§3) NIH-3T3 cells are plated at a density of 2×10^6 cells in 15 cm dishes and maintained in Dulbecco's modified Eagle's medium supplemented with 10% calf serum. One day later, cells are cotransfected by calcium phosphate precipitation with mammalian expression plasmids encoding p-SV-β-galactosidase (5-10 μg), receptor (1-2 μg) and G protein (1-2 μg). 40 μg salmon sperm DNA may also be included in the transfection mixture. Fresh media is added on the following day and 1-2 days later, cells are harvested and frozen in 50 assay aliquots. Cells are thawed and 100 μl added to 100 μl aliquots of various concentrations of drugs in triplicate in 96-well dishes. Incubations continue 72-96 hr at 37° C. After washing with phosphate-buffered saline, ∃-galactosidase enzyme activity is determined by adding 200 μl of the chromogenic substrate (consisting of 3.5 mM o-nitrophenyl-β-D-galactopyranoside and 0.5% nonidet P-40 in phosphate buffered saline), incubating overnight at 30° C. and measuring optical density at 420 nm. The absorbance is a measure of enzyme activity, which depends on cell number and reflects a receptor-mediated cell proliferation. The efficacy or intrinsic activity is calculated as a ratio of the maximal effect of the drug to the maximal effect of a standard full agonist for each receptor subtype. Brimonidine, also called UK14304, the chemical structure of which is shown below, is used as the standard agonist for the alpha2A, alpha2B and alpha2C receptors.
(§4) The results of the RSAT assay with several exemplary compounds of the invention are disclosed in Table 1 below together with the chemical structures of these compounds. “Not active” means the compounds are not active at concentrations less than 10 micromolar.

alpha2B receptor = target: T2, alpha2B receptor (Homo sapiens, UniProt P18089); assay: RSAT (Receptor Selection and Amplification Technology) assay, alpha 2B; settings: for Alpha 2B IA: intrinsic activity: ratio of maximal effect of drug to maximal effect of standard full agonist brimonidine (UK14304)
T2 construct: expressed in transfected cells; host or cells: NIH-3T3 cells
T2 sequence (P18089 1-450): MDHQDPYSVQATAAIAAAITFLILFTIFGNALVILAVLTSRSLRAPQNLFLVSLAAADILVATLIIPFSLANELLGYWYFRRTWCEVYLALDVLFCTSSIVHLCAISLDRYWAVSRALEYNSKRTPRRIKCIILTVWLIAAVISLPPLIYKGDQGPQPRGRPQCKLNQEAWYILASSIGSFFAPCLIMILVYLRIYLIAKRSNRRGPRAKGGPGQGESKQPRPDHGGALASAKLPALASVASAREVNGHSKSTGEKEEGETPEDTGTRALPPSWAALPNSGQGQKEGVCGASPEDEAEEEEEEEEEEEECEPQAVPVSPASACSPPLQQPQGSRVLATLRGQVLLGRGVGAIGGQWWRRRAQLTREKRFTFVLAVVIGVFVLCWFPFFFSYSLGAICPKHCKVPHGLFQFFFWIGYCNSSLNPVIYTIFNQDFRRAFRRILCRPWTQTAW
Procedure: as §2, §3

alpha2C receptor = target: T3, alpha2C receptor (Homo sapiens, UniProt P18825); assay: RSAT (Receptor Selection and Amplification Technology) assay, alpha 2C; settings: for EC50 / Alpha 2C EC50: RSAT, transfected NIH-3T3 cells, "not active" = not active at concentrations less than 10 micromolar; for Alpha 2C IA: intrinsic activity: ratio of maximal effect of drug to maximal effect of standard full agonist brimonidine (UK14304)
T3 construct: expressed in transfected cells; host or cells: NIH-3T3 cells
T3 sequence (P18825 1-462): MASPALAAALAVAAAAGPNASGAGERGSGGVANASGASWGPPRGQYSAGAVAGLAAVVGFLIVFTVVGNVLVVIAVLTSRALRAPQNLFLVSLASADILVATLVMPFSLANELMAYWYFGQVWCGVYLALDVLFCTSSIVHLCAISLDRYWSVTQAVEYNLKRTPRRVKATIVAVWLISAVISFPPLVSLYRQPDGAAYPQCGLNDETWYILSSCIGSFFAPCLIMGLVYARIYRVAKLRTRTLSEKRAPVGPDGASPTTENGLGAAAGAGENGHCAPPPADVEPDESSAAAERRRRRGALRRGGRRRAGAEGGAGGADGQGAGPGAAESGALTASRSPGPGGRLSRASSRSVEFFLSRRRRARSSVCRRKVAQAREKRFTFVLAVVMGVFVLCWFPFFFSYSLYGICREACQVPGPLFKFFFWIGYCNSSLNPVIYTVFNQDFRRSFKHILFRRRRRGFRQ
Excerpt: as §1, §2, §3, §4

[1] = RSAT, transfected NIH-3T3 cells, "not active" = not active at concentrations less than 10 micromolar, read-out: Alpha 2B EC50

Row | SMILES | EC50 (alpha2A receptor) | Alpha 2A IA (alpha2A receptor) | EC50 (alpha2B receptor; [1]) | Alpha 2B IA (alpha2B receptor) | EC50 (alpha2C receptor) | Alpha 2C IA (alpha2C receptor) | Alpha 2A EC50 (alpha2A receptor) | Alpha 2C EC50 (alpha2C receptor) | EC50 (alpha2B receptor)
1 | Cc1cccc(CNC(=O)NCCF)n1 [Compound 36, 1-(2-fluoro-ethyl)-3-(6-methyl-pyridin-2-ylmethyl)-urea] | 1760 nM | 0.62 | 414 nM | 0.78 | 1800 nM | 0.52 | – | – | –
2 | C[C@H](NC(=O)NCCF)c1ccccc1 [Compound 33, (−)-(S)-1-(2-Fluoro-ethyl)-3-(1-phenyl-ethyl)-urea] | 302 nM | 0.63 | 66 nM | 0.99 | 513 nM | 0.64 | – | – | –
3 | Cc1cccc(C(NC(=O)NCCF)c2ccc(C)s2)c1 (stereo not shown) [Compound 34, 1-(2-fluoro-ethyl)-3-[(5-methyl-thiophen-2-yl)-m-tolyl-methyl]-urea] | – | – | 829 nM | 0.41 | – | – | not active | not active | –
4 | O=C(NCCF)NCc1ccccc1C(F)(F)F [Compound 8, 1-(2-fluoro-ethyl)-3-(2-trifluoromethyl-benzyl)-urea] | – | – | 569 nM | 0.8 | 950 nM | 0.93 | not active | – | –
5 | O=C(NCCF)Nc1cccc2c1CCCC2 [Compound 28, 1-(2-fluoro-ethyl)-3-(5,6,7,8-tetrahydro-naphthalen-1-yl)-urea] | 385 nM | 0.43 | 157 nM | 0.87 | 285 nM | 0.74 | – | – | –
6 | Cc1ccnc(CNC(=O)NCCF)c1 [Compound 39, 1-(2-Fluoro-ethyl)-3-(4-methyl-pyridin-2-ylmethyl)-urea] | 2170 nM | 0.36 | 343 nM | 0.77 | 1560 nM | 0.61 | – | – | –
7 | O=C(NCCF)NC(c1ccccc1)c1ccccc1 [Compound 32, 1-benzhydryl-3-(2-fluoro-ethyl)-urea] | – | – | 325 nM | 0.58 | – | – | not active | not active | –
8 | O=C(NCCF)NCc1cccc2c1OCC2 [Compound 20, 1-(2,3-dihydro-benzofuran-7-ylmethyl)-3-(2-fluoro-ethyl)-urea] | 147 nM | 0.51 | 27 nM | 1.14 | 82 nM | 0.83 | – | – | –
9 | O=C(NCCF)NCc1cccc(Cl)c1F [Compound 1, 1-(3-chloro-2-fluoro-benzyl)-3-(2-fluoro-ethyl)-urea] | 1750 nM | 0.54 | 124 nM | 1.0 | 1130 nM | 0.71 | – | – | –
10 | Cc1nn(C)c(C)c1CNC(=O)NCCF [Compound 43, 1-(2-fluoro-ethyl)-3-(1,3,5-trimethyl-1H-pyrazol-4-ylmethyl)-urea] | 4200 nM | 0.30 | 2390 nM | 0.49 | – | – | – | not active | –
11 | Cc1cccc(C)c1NC(=O)NCCF [Compound 23, 1-(2,6-dimethyl-phenyl)-3-(2-fluoro-ethyl)-urea] | > 2000 nM | 0.61 | 679 nM | 0.75 | > 2000 nM | 0.43 | – | – | –
12 | O=C(NCCF)NCc1cccc(Br)n1 [Compound 38, 1-(6-bromo-pyridin-2-ylmethyl)-3-(2-fluoro-ethyl)-urea] | – | – | 592 nM | 0.85 | 2160 nM | 0.65 | not active | – | –
13 | O=C(NCCF)Nc1cccc2ccccc12 [Compound 30, 1-(2-fluoro-ethyl)-3-naphthalen-1-yl-urea] | 1060 nM | 0.74 | 458 nM | 0.9 | > 2000 nM | 0.66 | – | – | –
14 | Cc1ccc(CNC(=O)NCCF)o1 [Compound 40, 1-(2-fluoro-ethyl)-3-(5-methyl-furan-2-ylmethyl)-urea] | – | – | – | 0.83 | 2630 nM | 0.56 | not active | – | 968 nM
15 | Cc1ccccc1NC(=O)NCCF [Compound 22, 1-(2-fluoro-ethyl)-3-o-tolyl-urea] | > 2000 nM | 0.38 | 1540 nM | 0.92 | > 2000 nM | 0.48 | – | – | –
16 | O=C(NCCF)Nc1ccc2ccccc2c1 [Compound 25, 1-(2-fluoro-ethyl)-3-naphthalen-2-yl-urea] | 1270 nM | 0.58 | 1580 nM | 0.99 | > 2000 nM | 0.59 | – | – | –
